Experimental data reported in patent US10575528B2, “Plant disease control composition and plant disease control method” (SUMITOMO CHEMICAL COMPANY, LIMITED, priority 2015, dated 2020).

Assays:
[1] = system: damping-off fungus (Fusarium spp.); experiment: Test Example 15: corn seed smearing treatment, damping-off pot test (Table 4); format: in vivo; conditions: corn seeds, 20 days after
Protocol: In a rotary seed treatment machine (trade name: HEGE11, manufactured by WINTERSTEIGER), corn seeds (variety: yellow dent corn) were treated by smearing treatment using pyraclostrobin flowable formulation (20% wettable granules, trade name: Comet, BASF. Corporation), a chemical liquid prepared by dissolving fluoxastrobin in acetone/Tween 20 (weight ratio=95:5) and diluting with water, and the flowable formulation of the present bacterial strain obtained in Formulation Example 16, respectively, so that the corn seeds retain the present bacterial strain and the compound in the amount shown in Table 4.
Cultivation was carried out in a greenhouse under irrigation. Also, similar procedures were conducted using untreated corn seeds, instead of the treated corn seeds, as described above for the treated compartment (“untreated compartment”). The plants were investigated 20 days after for the number of diseased plants, and the disease incidence was calculated by the following “Equation 1”. The control value of the treated compartment was calculated by the following equation “Equation 2”, based on the disease incidences of the treated compartment and the untreated compartment. Disease incidence (%)=100×(number of diseased plant/total number of seeded seeds): Equation 1 Control value (%)=100×[(disease incidence in […] in treated compartment)/disease incidence in untreated compartment]: Equation 2
(§1) If the effect by the combination of two active ingredients is greater than that of the estimated value E, which is calculated by the Colby's equation as follows, the effect is regarded as synergistic. E=X+Y−X·Y/100 wherein, E=Control value when using the mixture of the active ingredients A and B at the concentrations m and n (amount of the active ingredient), respectively.
(§2) X=Control value when using the active ingredient A at the concentration m (amount of the active ingredient).
(§3) Y=Control value when using the active ingredient B at the concentration n (amount of the active ingredient).

[2] = system: damping-off fungus (Rhizoctonia solani); experiment: Test Example 16: soybean seed smearing treatment, damping-off pot test (Table 5); format: in vivo; conditions: soybean seeds, 20 days after
Protocol: as §1, §2, §3
In a rotary seed treatment machine (trade name: HEGE11, manufactured by WINTERSTEIGER), soybean seeds (variety:“Hatayutaka”) were treated by smearing treatment using azoxystrobin flowable formulation (25% flowable formulation, trade name: Amistar, Syngenta), trifloxystrobin flowable formulation (25% flowable formulation, trade name: FLINT, Bayer CropScience), a chemical liquid prepared by diluting picoxystrobin in acetone/Tween 20 (weight ratio=95:5) and diluting with water, a chemical liquid prepared by dissolving mandestrobin in acetone/Tween 20 (weight ratio=95:5) and diluting with water, and the flowable formulation obtained of the present bacterial strain in Formulation Example 16, so that the soybean seeds retain the bacteria and the compound in the amount shown in Table 5.
Cultivation was carried out in a greenhouse under irrigation. Also, similar procedures were conducted using untreated soybean seeds, instead of the treated soybean seeds, as described above for the treated compartment (“untreated compartment”). The plants were investigated 20 days after for the number of diseased plants, and the disease incidence was calculated by the following “Equation 1”. The control value of the treated compartment was calculated by the following equation “Equation 2”, based on the disease incidences of the treated compartment and the untreated compartment. Disease incidence (%)=100×(number of diseased plant/total number of seeded seeds): Equation 1 Control value (%)=100×[(disease incidence in untreated compartment−disease incidence in treated compartment)/disease incidence in untreated compartment]: Equation 2

| SMILES | Controlling Effect (control value) ([1]; 0.05 g/Kg seeds) | Controlling Effect (control value) ([1]; 0.1 g/Kg seeds) | Controlling Effect (control value) ([2]; 0.002 g/Kg seeds) | Controlling Effect (control value) ([2]; 0.01 g/Kg seeds) | Controlling Effect (control value) ([2]; 0.05 g/Kg seeds) | other results |
| --- | --- | --- | --- | --- | --- | --- |
| CO/N=C(/C1=NOCCO1)c1ccccc1Oc1ncnc(Oc2ccccc2Cl)c1F [Fluoxastrobin] | 14.0% | 30.2% |  |  |  | Controlling Effect (control value) ([1]; 0.2 g/Kg seeds): 41.9% |
| CON=C(C(=O)OC)c1ccccc1CON=C(C)c1cccc(C(F)(F)F)c1 [Trifloxystrobin] |  |  | 20.5% | 31.8% | 40.9% |  |
| CNC(=O)C(OC)c1ccccc1COc1cc(C)ccc1C (stereo not drawn) [Mandestrobin] |  |  |  |  | 36.4% | Controlling Effect (control value) ([2]; 0.025 g/Kg seeds): 25.0%; Controlling Effect (control value) ([2]; 0.1 g/Kg seeds): 47.7% |
| COC(=O)N(OC)c1ccccc1COc1ccn(-c2ccc(Cl)cc2)n1 [Pyraclostrobin] | 25.6% | 37.2% |  |  |  | Controlling Effect (control value) ([1]; 0.025 g/Kg seeds): 18.6% |
| CO/C=C(/C(=O)OC)c1ccccc1COc1cccc(C(F)(F)F)n1 [Picoxystrobin] |  |  | 18.2% | 27.3% | 38.6% |  |
| CO/C=C(/C(=O)OC)c1ccccc1Oc1cc(Oc2ccccc2C#N)ncn1 [Azoxystrobin] |  |  |  | 29.5% |  | Controlling Effect (control value) ([2]; 0.005 g/Kg seeds): 15.9%; Controlling Effect (control value) ([2]; 0.02 g/Kg seeds): 38.6% |
